Marks after values point to notes of the source that are not given here.
Assays:
[1] = test system: bacteria, yeasts and molds; assay: USP test for preservative efficacy (overall); type: cell-based; conditions: 1% w/w, full vials, at the time of manufacture
Experimental: The target pH of the multidose vial is 6 and limits of 5 to 7. […] Efficacy of the preservative was therefore assessed over the lower pH range 4 to 6. Vials prepared at pH4, 5 and 6 were tested for preservative efficacy according to the USP XXII 1990—“Antimicrobial Preservative Effectiveness.”
For bacteria, the acceptance criteria require that the number of organisms per mL is reduced by a factor of not less than 10^3 in 14 days and there is no increase thereafter. All three batches met these criteria for P aeruginosa, S. aureus and E. coli.
All three batches met this criterion for C. albicans and A. niger.
In summary, vials prepared at pH4, 5 and 6 all pass the USP test for preservative efficacy.

[2] = Stability of preservative systems to autoclave (placebo solutions, pH6, 121° C.); type: physicochemical; conditions: for Content after 15 mins (% of initial): autoclaved 15 minutes at 121° C.; for Content after 15 mins (% of initial) / Contents after 60 mins (% of initial): pH6; for Contents after 60 mins (% of initial): autoclaved 60 minutes at 121° C.; for Initial content: placebo solution pH6, before autoclaving; for stability to autoclaving (in words): up to 60 minutes at 121° C.; for Area percent for the unknown peak at 15 mins / Content at 15 mins (percentage of total peak area): autoclaved 15 mins; for Area percent for the unknown peak at 60 mins / Content at 60 mins (percentage of total peak area): autoclaved 60 mins; for Area percent for the unknown peak, initial / Initial content (percentage of total peak area): before autoclaving; for Content at 15 mins (percentage of total peak area) / Content at 60 mins (percentage of total peak area) / Initial content (percentage of total peak area): single paraben system, area normalisation
Experimental: The five preservative systems were assessed for stability to the autoclave process. Placebo solutions were prepared at pH6, filled into 2 ml glass vials and autoclaved for 15 and 60 minutes at 121° C. A cycle time of 60 minutes was selected to mimic the most extreme conditions to which a vial on the outside of a full autoclave load could be subjected to. Solutions were prepared at pH6 since this was the target pH of the multidose dose formulation. The early experiments were performed using 2 ml flint glass vials and West #1816 Teflon faced, bromobutyl rubber stopper.
External standards of the parabens could not be prepared due to their poor aqueous solubility. The results were therefore determined by are normalization, whereby peak areas are expressed as a percentage of the total peak area of the chromatograph.
NOTE: The results are expressed as percentage of total peak area determined by area normalisation.
Area percent for the unknown peak

[3] = test system: gram-positive and gram-negative bacteria, yeasts and molds; conditions: cited from earlier work; for efficacy against gram-positive and gram-negative bacteria, yeasts and molds: over the pH range 5-7
[4] = Stability of meta-cresol formulation to autoclaving; type: physicochemical; conditions: autoclave cycle
Experimental: To investigate this phenomenon further, the stability during autoclaving experiment was repeated on samples of the meta-cresol formulation. The degradation product content increased from 0.05% before autoclaving to 0.53% at 15 minutes then 0.93% at 60 minutes. […] Meta-cresol was therefore rejected as a possible preservative.

Compound: OCc1ccccc1 [Benzyl Alcohol, Benzyl alcohol]
- antimicrobial preservative efficacy [1]: efficacious
- Content after 15 mins (% of initial) [2]: 100 % of initial
- Contents after 60 mins (% of initial) [2]: 100 % of initial
- Initial content [2]: 10.0 mg/mL
- stability to autoclaving (in words) [2]: good stability with no change in preservative content
- efficacy as a function of pH ([3]; literature): decreases with increasing pH above pH5
- efficacy against gram-positive and gram-negative bacteria, yeasts and molds [3]: moderate efficacy

Compound: CCCOC(=O)c1ccc(O)cc1 [Propyl Parabens, Propyl paraben]
- Area percent for the unknown peak at 15 mins [2]: 1.6%
- Area percent for the unknown peak at 60 mins [2]: 2.7%
- Area percent for the unknown peak, initial [2]: 0.6%
- Content at 15 mins (percentage of total peak area) [2]: 98.4%
- Content at 60 mins (percentage of total peak area) [2]: 97.2%
- Initial content (percentage of total peak area) [2]: 99.4%

Compound: COC(=O)c1ccc(O)cc1 [Methyl-Parabens, Methyl paraben]
- Area percent for the unknown peak at 15 mins [2]: (3.7%)*
- Area percent for the unknown peak at 60 mins [2]: (6.5%)*
- Area percent for the unknown peak, initial [2]: (0.2%)*
- Content at 15 mins (percentage of total peak area) [2]: 96.3%
- Content at 60 mins (percentage of total peak area) [2]: 93.5%
- Initial content (percentage of total peak area) [2]: 99.8%

Compound: Cc1cccc(O)c1 [Meta-Cresol, Meta-cresol]
- compatibility with granisetron hydrochloride [4]: incompatible
- Content after 15 mins (% of initial) [2]: 100 % of initial
- Contents after 60 mins (% of initial) [2]: 100 % of initial
- Initial content [2]: 2.6 mg/mL
- stability to autoclaving (in words) [2]: good stability with no change in preservative content
- efficacy against gram-positive and gram-negative bacteria, yeasts and molds [3]: good efficacy

Reference: patent US20010020029A1, “New multidose vial formulations for administering endo-N-(9-methyl-9-azabicyclo[3.3.1]non-3-yl)-1-methyl-1H- indazole-3-carboxamide hydrochloride” (SmithKline Beecham p.l.c., priority 1998, published 2001)
